Test system: cartilage tissue cultures exposed to IL-1 (ECM degradation, HA release)
Test: HA release from IL-1 exposed cartilage tissue cultures (ELISA)
Type: cell-based
Details: relative to control culture, sulfate
Experimental: Experiments were conducted to evaluate the anti-inflammatory effects of combinations of particular phytochemical compositions provided by the present disclosure with known substances, compositions, or drugs that are associated with an anti-inflammatory effect and/or an anti-degenerative or tissue integrity preservation effect in connective tissue. In the context of the present disclosure, the term “connective tissue” encompasses connective tissue proper (e.g., dense or fibrous connective tissue), as well as specialized connective tissue such as cartilage or bone. More specifically, experiments were conducted to evaluate the anti-inflammatory, anti-degenerative, and/or structural preservation effects of a combination of particular phytochemical compositions provided by the present disclosure with glucosamine sulfate. In addition, the experiments compared the anti-inflammatory/anti-degenerative effects of the combination of particular sesamin or sesamin-based phytochemical compositions provided by the present disclosure plus glucosamine sulfate, versus the anti-inflammatory/anti-degenerative effects of glucosamine sulfate alone.
Hyaluronic acid (HA) is an important component of the extracellular matrix (ECM), as well as a major component of synovial fluid. HA is present in articular cartilage, and contributes to cartilage resilience. It is known that IL-1 stimulates the synthesis and activity of matrix metalloproteinases and other enzymes that are associated with cartilage degradation as well as rheumatoid arthritis and osteoarthritis. A set of experimental cartilage tissue cultures were prepared using cartilage tissue samples containing HA within their ECMs. As further detailed below, the experimental cartilage tissue cultures selectively incorporated glucosamine sulfate alone; sesamin alone; or a combination of glucosamine sulfate and sesamin. Additionally, a control cartilage tissue culture remained unexposed to either of sesamin or glucosamine sulfate.
ECM degradation was induced in the experimental and control cartilage tissue cultures by exposing the cultures to IL-1. A measure or estimate of a cartilage tissue anti-degenerative effect was defined in accordance with an amount of HA that an experimental cartilage tissue culture released into the tissue culture medium relative to a reference or baseline amount of HA that was released into the tissue culture medium by the control cartilage tissue culture. More particularly, a percentage reduction in the amount of HA released into the tissue culture medium by a given experimental cartilage tissue culture relative to the amount of HA released into the tissue culture medium by the control cartilage tissue culture, indicated below as “Percentage (%) HA Reduction”, conveys or indicates the magnitude of an anti-degenerative or structural preservation effect provided by the experimental cartilage tissue culture under consideration. A corresponding measure or estimate of percentage (%) HA retention by cartilage tissue can also be defined based upon the experimental results. The amount or level of HA present in a given tissue culture medium was detected using ELISA, in a manner that can be understood by one of ordinary skill in the art.

## N[C@H]1C(O)O[C@H](CO)[C@@H](O)[C@@H]1O.O=S(=O)(O)O (stereo partly drawn) [Glucosamine Sulfate, glucosamine sulfate, reference compound]
Glucosamine sulfate 20 mM (9 mg/ml), listed as glucosamine sulfate
  Percentage (%) HA Reduction: approximately 3%
Glucosamine sulfate 20 mM (9 mg/ml)
  Percentage (%) HA Reduction: 3%
Glucosamine sulfate 40 mM (18 mg/ml), listed as glucosamine sulfate
  Percentage (%) HA Reduction: approximately 28%
Glucosamine sulfate 40 mM (18 mg/ml)
  Percentage (%) HA Reduction: 28%
Glucosamine sulfate 80 mM (36 mg/ml), listed as glucosamine sulfate
  Percentage (%) HA Reduction: approximately 43%
Glucosamine sulfate 80 mM (36 mg/ml)
  Percentage (%) HA Reduction: 43%
